Results as given in patent publication EP0882016B1, “ALKYLATED STYRENES AS PRODRUGS TO COX-2 INHIBITORS” (Merck Frosst Canada & Co., priority 1996, dated 1997).

How the values were obtained:
Rat Paw Edema = assay: Rat paw edema assay (carrageenan); assay type: in vivo, Male Sprague-Dawley rats; settings: dose of prodrug, po, required to reduce edema formation by 50% as compared to the vehicle control
Protocol: Male Sprague-Dawley rats (150-200 g) are fasted overnight and are given, po, either vehicle (1% methocel or 5% Tween 80) or a test compound. One hr later, a line is drawn using a permanent marker at the level above the ankle in one hind paw to define the area of the paw to be monitored. The paw volume (V0) is measured using a plethysmometer (Ugo-Basile, Italy) based on the principle of water displacement. The animals are then injected subplantarly with 50 µl of 1% carrageenan solution in saline (FMC Corp, Maine) into the paw using an insulin syringe with a 25-gauge needle (i.e. 500 µg carrageenan per paw). Three hr later, the paw volume (V3) is measured and the increases in paw volume (V3 - VO) are calculated. The animals are sacrificed by CO2 asphyxiation and the absence or presence of stomach lesions scored. Data is compared with the vehicle-control values and percent inhibition calculated. All treatment groups are coded to eliminate observer bias.
Compounds of the present invention are prodrugs of inhibitors of COX-2 and are thereby useful in the treatment of COX-2 mediated diseases as enumerated above. The extent of conversion of these compounds to the active COX-2 inhibitors may be seen in the representative results shown in Table III along with their antiinflammatory activity. The plasma levels indicated are the maximum rat plasma concentrations of the active COX-2 inhibitor observed when the rat was treated with a 20 mg/kg oral dose of the indicated prodrug. The ED50 values in the rat paw edema assay represent the dose of prodrug required to reduce edema formation by 50% as compared to the vehicle control.

[1] = Rat plasma levels, per os pharmacokinetics in rats; assay type: in vivo, Male Sprague Dawley rats; settings: maximum rat plasma concentration of the active COX-2 inhibitor (corresponding carbonyl compound) after 20 mg/kg oral dose of the indicated prodrug
Text: The animals are housed, fed and cared for according to the Guidelines of the Canadian Council on Animal Care.
Male Sprague Dawley rats (325-375 g) are fasted overnight prior to each PO blood level study.
The rats are placed in the restrainer one at a time and the box is firmly secured. The zero blood sample is obtained by nicking a small (1 mm or less) piece off the tip of the tail. The tail is then stroked with a firm but gentle motion from the top to the bottom to milk out the blood. Approximately 1 mL of blood is collected into a heparinized vacutainer tube.
Compounds are prepared as required, in a standard dosing volume of 10mL/kg, and administered orally by passing a 16 gauge, 3" gavaging needle into the stomach.
Subsequent bleeds are taken in the same manner as the zero bleed except that there is no need to nick the tail again. The tail is cleaned with a piece of gauze and milked/stroked as described above into the appropriately labelled tubes.
Immediately after sampling, blood is centrifuged, separated, put into clearly marked vials and stored in a freezer until analysed.
Typical time points for determination of rat blood levels after PO dosing are: 0, 15min, 30min, 1h, 2h, 4h, 6h
After the 4hr time point bleed, food is provided to the rats ad libitum. Water is provided at all times during the study.
The following vehicles may be used in PO rat blood level determinations:
Compounds for PO blood levels can be in suspension form. For better dissolution, the solution can be placed in a sonicator for approximately 5 minutes.
For analysis, aliquots are diluted with an equal volume of acetonitrile and centrifuged to remove protein precipitate. The supernatant is injected directly onto a C-18 HPLC column with UV detection. Quantitation is done relative to a clean blood sample spiked with a known quantity of drug. Bioavailability (F) is assessed by comparing area under the curve (AUC) i.v. versus p.o. F =(AUCpo)/(AUCiv)x(DOSEiv)/(DOSEpo)x 100% [formula] […]

Compound | Rat Paw Edema (ED50, mg/kg) (Rat Paw Edema) [mg/kg] | Plasma Levels (µM)* [1] [µM]
CC(C)(O)/C(=C(\CO)c1cccc(F)c1)c1ccc(S(C)(=O)=O)cc1 [Example 1, 2-(3-Fluorophenyl)-4-methyl-3-(4-(methylsulfonyl)-phenyl)-2-(Z)-penten-1,4-diol] | 10 | 3.5
COC(=O)/C(=C(/c1ccc(S(C)(=O)=O)cc1)C(C)(C)OC)c1cccc(F)c1 [Example 6, Methyl 2-(3-fluorophenyl)-4-methoxy-4-methyl-3-(4-(methylsulfonyl)phenyl)-2-(Z)-pentenoate] | 2.1 | 6
COC(C)(C)/C(=C(\C(=O)N(C)C)c1cccc(F)c1)c1ccc(S(C)(=O)=O)cc1 [Example 4, N,N-Dimethyl-2-(3-fluorophenyl)-4-methoxy-4-methyl-3-(4-(methylsulfonyl)phenyl)-2-(Z)-pentenamide] | 1.6 | 10
